Patent publication US10544085B2, “Oils having antibacterial activity” (The United States of America, as Represented by the …, priority 2014, dated 2020)
In brackets after ≈: the same amount, converted by molar mass.

Experiments:
S. agalactiae = assay: Disc diffusion assay of HPLC fractions; type: cell-based, Streptococcus agalactiae; details: 5 mg/ml, 10 μl per 6 mm disc, 37° C. overnight
Protocol: Antibacterial activity for each fraction of the HPLC is measured qualitatively by disc diffusion assay. S. agalactiae at a density of 0.5 McFarland units are diluted 1:100 in PBS, and 20 μl are evenly spread on TSB agar media. Paper discs (6 mm diameter) are placed on surface. HPLC fractionated oils are dissolved to a concentration of 5 mg/ml in solvent (1:1 dimethylsulfoxide:2-butanone), and samples (10 μl) are applied to each disc. Plates are incubated at 37° C. overnight, and scored for a growth inhibition zone surrounding the disc, which indicates antibacterial activity. 5 mg/ml of purified oil is used as positive control, and acetonitrile solvent for HPLC is used as negative control.

Streptococcus agalactiae = assay: MIC, broth microdilution; type: cell-based; details: HPLC fractions, serial two-fold dilutions approximately 128 μg/ml to approximately 2 μg/ml
Source text: The eight bacterial strains listed in Table 1 are used in the antibacterial activity assays. Streptococcus agalactiae and S. uberis (gifts from D. Donovan, ARS, USDA, Beltsville, Md.), Lactobacillus fermentum laboratory strain number 0315-1 (Bischoff, et al., Biotechnology and Bioengineering 103:117-122 (2009)), Enterococcus faecalis (ATCC Accession Number 29212), Bacillus subtilis MW10 (Bacillus Genetic Stock Center Accession Number 1A751), Staphylococcus aureus (ATCC Accession Number 29213), Escherichia coli (ATCC Accession Number 25922), and Pseudomonas aeruginosa (ATCC Accession Number 27853) are obtained from the indicated source. S. uberis, S. agalactiae, S. aureus, E. coli, and P. aeruginosa are cultured in tryptic soy broth (TSB) at 37° C. TSB contains the following: peptone from casein 17.0 g/L; peptone from soymeal 3.0 g/L; D(+)glucose 2.5 g/L; sodium chloride 5.0 g/L; and di-potassium hydrogen phosphate 2.5 g/L. E. faecalis are cultured in Bacto Brain Heart Infusion broth (BHI) (Becton Dickenson, Franklin Lakes, N.J.) at 37° C. L. fermentum are cultured in MRS broth at 37° C. MRS broth contains the following: peptone from casein 10.0 g/L; meat extract 8.0 g/L; yeast extract 4.0 g/L; D(+)-glucose 20.0 g/L; di-potassium hydrogen phosphate 2.0 g/L; Tween® 80 1.0 g/L; di-ammonium hydrogen citrate 2.0 g/L; sodium acetate 5.0 g/L; magnesium sulfate 0.2 g/L; and manganese sulfate 0.04 g/L. […]
Fractions 5-14 that were obtained from the HPLC fractionation (above) are assayed for antibacterial activity against S. agalactiae by the broth dilution method with serial two-fold dilutions of each component ranging from approximately 128 μg/ml to approximately 2 μg/ml. Fraction 12, containing mannitol-liamocin B1 had the lowest minimum inhibitory concentration (i.e. highest antibacterial activity) of the fractions.

Streptococcus epidermis = details: cited from earlier work
[1] = system: three strains of Staphylococcus aureus; details: cited from earlier work
Enterococcus faecium = details: cited from earlier work
E. faecalis = details: cited from earlier work

mannitol-liamocin A2 [Fraction 9]
growth inhibition zone surrounding the disc (antibacterial activity, qualitative) (S. agalactiae): exhibit bactericidal activity
Minimum Inhibitory Concentration (Streptococcus agalactiae; listed as 9): 128 µg/mL

mannitol-liamocin B1 [Fraction 11]
growth inhibition zone surrounding the disc (antibacterial activity, qualitative) (S. agalactiae): exhibit bactericidal activity
Minimum Inhibitory Concentration (Streptococcus agalactiae; listed as 11): 64 µg/mL

mannitol-liamocin B2 [Fraction 13]
growth inhibition zone surrounding the disc (antibacterial activity, qualitative) (S. agalactiae): exhibit bactericidal activity
Minimum Inhibitory Concentration (Streptococcus agalactiae): 128 µg/mL

mannitol-liamocin A1 [Fraction 7]
Minimum Inhibitory Concentration (Streptococcus agalactiae; listed as 7): >128 µg/mL

mannitol-liamocin A1 [Fraction 8]
growth inhibition zone surrounding the disc (antibacterial activity, qualitative) (S. agalactiae): exhibit bactericidal activity
Minimum Inhibitory Concentration (Streptococcus agalactiae; listed as 8): 64 µg/mL

CCCCC[C@@H](O)C[C@@H](O)CC(=O)O[C@H](CCCCC)C[C@@H](O)CC(=O)O[C@H](CCCCC)C[C@@H](O)CC(=O)O [Exophilin A]
MIC (Streptococcus epidermis): > 100 µg/mL
MIC [1]: 50 µg/mL (≈ 86.7 µM)
MIC (Enterococcus faecium): 12.5 µg/mL (≈ 21.7 µM)
MIC (E. faecalis): 25 µg/mL (≈ 43.3 µM)

mannitol-liamocin A2 [Fraction 10]
Minimum Inhibitory Concentration (Streptococcus agalactiae; listed as 10): 64 µg/mL

mannitol-liamocin B1 [Fraction 12]
Minimum Inhibitory Concentration (Streptococcus agalactiae; listed as 12): 16 µg/mL
